Here are results for 5 molecules from article PMC10184313, “Inhibition of Thiamine Diphosphate-Dependent Enzymes by Triazole-Based Thiamine Analogues” (ACS Medicinal Chemistry Letters, 2023).

Data set [1] relates to P. falciparum strain 3D7. Particulars: thiamine 2.97 μM vs absence of thiamine; ref [15]; cited from earlier work.
Data set [2] relates to P. falciparum 3D7 expressing PfTPK-GFP. Set-up: method as in PMID 23804074. The settings on record: thiamine-free culture medium; ref [15]; cited from earlier work.
Data set [3] deals with T1, porcine PDHc E1 (Sus scrofa, UniProt P29804).
T1 sequence (P29804 31-390): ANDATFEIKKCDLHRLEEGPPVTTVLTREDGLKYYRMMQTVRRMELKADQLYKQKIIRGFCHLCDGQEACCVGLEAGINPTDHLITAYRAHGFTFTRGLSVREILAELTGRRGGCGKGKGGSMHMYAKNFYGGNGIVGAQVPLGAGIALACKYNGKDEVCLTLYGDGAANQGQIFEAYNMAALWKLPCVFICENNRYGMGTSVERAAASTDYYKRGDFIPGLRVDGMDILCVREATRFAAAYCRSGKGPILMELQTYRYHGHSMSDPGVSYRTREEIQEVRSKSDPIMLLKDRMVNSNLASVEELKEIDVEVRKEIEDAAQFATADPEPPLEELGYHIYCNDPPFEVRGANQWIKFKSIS
The data set is described as follows: PDHc E1 inhibitory activity assay (DCPIP reduction). Type of data set: biochemical. The settings on record: porcine PDHc E1; read-out: KM(ThDP) PDHc E1. As to the method: Enzyme assays – Methods and Results S1
Ligand efficiencies – Calculations S3 […]
Enzyme assays (Methods and Results)
PDHc E1 inhibitory activity assay. Porcine PDHc E1 was purchased from Sigma. Its activity was […]
determined by monitoring 2,6-dichlorophenolindophenol (DCPIP) reduction at 600 nm using a […]
microplate reader (CLARIOstar) and conducted as described 1,2 with some modifications. The percentage inhibition of compounds against porcine PDHc E1 was assayed at a final concentration of 250 µM. The reaction buffer (50 mM KH 2PO4 and 1 mM MgCl 2, pH 7) contained 50 µM ThDP (or 125 µM in the competition assay), 0.25 mM DCPIP, and 2 mg/ml porcine PDHc E1. The reaction mixture […]
was preincubated at 37 °C for 30 min, then the reaction was initiated by adding pyruvate to a final […]
concentration of 50 mM. To determine the half-maximal inhibitory concentration (IC 50 ), ThDP […]
concentration was lowered to 10 µM, and inhibitor concentration was varied (0.4-200 µM). Specific […]
activity was calculated using the molar extinction coefficient of DCPIP, 21 mM -1 cm-1.3 The enzyme […]
IC50 values were calculated from non-linear regression curve fitting using GraphPad Prism.

Data set [4] has as its target T2, E. coli OGDHc E1 (Escherichia coli, UniProt P0AFG3).
T2 sequence (P0AFG3 1-933): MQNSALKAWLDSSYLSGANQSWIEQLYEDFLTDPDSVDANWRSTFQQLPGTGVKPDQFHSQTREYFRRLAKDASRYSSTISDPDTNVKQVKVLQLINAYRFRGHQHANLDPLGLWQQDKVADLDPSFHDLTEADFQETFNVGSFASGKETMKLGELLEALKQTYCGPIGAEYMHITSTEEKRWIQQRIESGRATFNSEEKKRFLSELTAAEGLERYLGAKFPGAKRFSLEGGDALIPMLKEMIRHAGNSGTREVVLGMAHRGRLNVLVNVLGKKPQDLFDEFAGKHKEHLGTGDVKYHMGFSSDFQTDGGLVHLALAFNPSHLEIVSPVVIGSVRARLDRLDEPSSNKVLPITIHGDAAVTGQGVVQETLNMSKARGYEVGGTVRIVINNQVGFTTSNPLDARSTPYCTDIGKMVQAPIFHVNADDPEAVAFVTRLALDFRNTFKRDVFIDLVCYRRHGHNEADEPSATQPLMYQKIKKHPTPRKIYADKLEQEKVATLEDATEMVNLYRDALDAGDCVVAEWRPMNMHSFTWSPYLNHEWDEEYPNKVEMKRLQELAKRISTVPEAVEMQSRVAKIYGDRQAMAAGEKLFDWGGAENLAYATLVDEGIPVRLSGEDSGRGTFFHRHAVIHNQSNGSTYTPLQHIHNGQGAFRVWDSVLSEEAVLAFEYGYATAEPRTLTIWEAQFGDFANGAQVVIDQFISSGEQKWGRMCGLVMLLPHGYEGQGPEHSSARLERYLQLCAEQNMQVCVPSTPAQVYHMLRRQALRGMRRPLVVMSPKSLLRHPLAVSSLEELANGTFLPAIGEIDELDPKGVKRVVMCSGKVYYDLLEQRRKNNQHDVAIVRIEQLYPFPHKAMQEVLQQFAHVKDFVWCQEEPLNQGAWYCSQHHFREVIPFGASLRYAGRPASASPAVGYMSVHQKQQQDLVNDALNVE
The data set is described as follows: E. coli OGDHc E1 inhibitory activity assay (DCPIP reduction). The class given is biochemical. The settings on record: E. coli OGDHc E1; read-out: KM(ThDP) OGDHc E1. How it is done:
E. coli OGDHc E1 inhibitory activity assay. E. coli OGDHc E1 was from our previous work 5 and had been donated by R. Frank. Its activity was determined by monitoring DCPIP reduction at 600 nm using a microplate reader (CLARIOstar) and conducted as described 1,2 with some modifications. The percentage inhibition of compounds against E. coli OGDHc E1 was assayed at a final concentration of 250 µM. The reaction buffer (50 mM KH 2PO4 and 2 mM MgCl 2, pH 7) contained 50 µM ThDP (or 125 µM in the competition assay), 0.5 mM DCPIP, and 6.7 mg/ml E. coli OGDHc E1. The reaction mixture was preincubated at 37 °C for 60 min, then reaction was initiated by adding α-ketoglutarate to a final concentration of 10 mM. To determine the IC 50, ThDP concentration was lowered to 30 µM, and inhibitor concentration was varied (2-1000 µM). Specific activity was calculated using the molar […]
for the PDHc E1 assay. […] 5 […]

Data set [5] has as its target PDC from Zymomonas mobilis. Also on record: method as in PMID 19082157, PMID 20099870. Particulars: ref [8],[24]; cited from earlier work.
Substrate in data set [6]: Cc1ncc(C[n+]2csc(CCO[P@](=O)(O)OP(=O)(O)O)c2C)c(N)n1
The data set is described as follows: A. viridans PO inhibitory activity assay (quinoneimine dye). The class given is biochemical, Aerococcus viridans. The settings on record: other: A. viridans PO; 37.0 °C. As to the method:
A. viridans PO inhibitory activity assay. A. viridans PO and horseradish peroxidase were purchased from Sigma. A. viridans PO activity was determined by monitoring appearance of quinoneimine dye at 550 nm using a microplate reader (CLARIOstar) and conducted as described 1 with some modifications.
The percentage inhibition of compounds against A. viridans PO was assayed at a final concentration of 250 µM. The reaction buffer (50 mM KH 2PO4 and 10 mM MgCl 2, pH 5.9) contained 50 µM ThDP (or 125 µM in the competition assay), 10 µM flavin adenine dinucleotide (FAD), 0.15% 4-Aminoantipyrine, 0.3% N-Ethyl-N-(2-hydroxy-3-sulfopropyl)-m-toluidine (EHSPT), 50 µg/mL horseradish peroxidase and 0.35 U/mL A. viridans PO. The reaction mixture was preincubated at 37 °C for 30 min, then reaction was initiated by adding pyruvate to a final concentration of 50 mM. To determine the IC 50, inhibitor concentration was varied (2-1000 µM) with ThDP concentration at 50 µM. 1 unit of PO activity is defined as 1 μmol of hydrogen peroxide produced per minute. The enzyme IC 50 values were calculated as described for the PDHc E1 assay. […]

Substrate in data set [7]: Cc1ncc(C[n+]2csc(CCO[P@](=O)(O)OP(=O)(O)O)c2C)c(N)n1
The data set is described as follows: Z. mobilis PDC inhibitory activity assay (NADH consumption). The class given is biochemical, Zymomonas mobilis. The settings on record: pH 7.0; 37.0 °C.

Consider `Cc1ncc(C[n+]2csc(CCO)c2C)c(O)n1` [Compound 7a, oxythiamine], for which the “fold increase of IC50 with added thiamine” value in data set [1] is 470 fold. For the same molecule, the “fold more sensitive, parasite over-expressing TPK vs parasite bearing an empty plasmid” value in data set [2] is reported as 70 fold.

The Km is the concentration of substrate that gives half-maximal velocity. For `Cc1ncc(C[n+]2csc(CCO[P@](=O)(O)OP(=O)(O)O)c2C)c(N)n1` [ThDP, thiamine diphosphate], the Km was found to be 0.05 µM in data set [3] and 3 µM in data set [4].

A word on the Ki: it is the equilibrium dissociation constant of an inhibitor or competing ligand from its target. Consider `Cc1ncc(Cn2cc(CCOP(=O)(O)OP(=O)(O)O)nn2)c(N)n1` [Triazole-ThDP 5], for which, in data set [5], the Ki is 0.03 nM.

B1: A. viridans PO (Aerococcus viridans) (protein)
chain: MSDNKINIGLAVMKILESWGADTIYGIPSGTLSSLMDAMGEEENNVKFLQVKHEEVGAMAAVMQSKFGGNLGVTVGSGGPGASHLINGLYDAAMDNIPVVAILGSRPQRELNMDAFQELNQNPMYDHIAVYNRRVAYAEQLPKLVDEAARMAIAKRGVAVLEVPGDFAKVEIDNDQWYSSANSLRKYEPIAPAAQDIDAAVELLNNSKRPVIYAGIGTMGHGPAVQELARKIKAPVITTGKNFETFEWDFEALTGSTYRVGWKPANETILEADTVLFAGSNFPFSEVEGTFRNVDNFIQIDIDPAMLGKRHHADVAILGDAGLAIDEILNKVDAVEESAWWTANLKNIANWREYINMLETKEEGDLQFYQVYNAINNHADEDAIYSIDVGNSTQTSIRHLHMTPKNMWRTSPLFATMGIAIPGGLGAKNTYPDRQVWNIIGDGAFSMTYPDVVTNVRYNMPVINVVFSNTEYAFIKNKYEDTNKNLFGVDFTDVDYAKIAEAQGAKGFTVSRIEDMDRVMAEAVAANKAGHTVVIDCKITQDRPIPVETLKLDSKLYSEDEIKAYKERYEAANLVPFREYLEAEGLESKYIK
In the case of B1, in data set [6], the Km is 5 µM.

B2: Z. mobilis PDC (Zymomonas mobilis subsp. mobilis ZM4 = ATCC 31821) (protein)
chain: MSYTVGTYLAERLVQIGLKHHFAVAGDYNLVLLDNLLLNKNMEQVYCCNELNCGFSAEGYARAKGAAAAVVTYSVGALSAFDAIGGAYAENLPVILISGAPNNNDHAAGHVLHHALGKTDYHYQLEMAKNITAAAEAIYTPEEAPAKIDHVIKTALREKKPVYLEIACNIASMPCAAPGPASALFNDEASDEASLNAAVEETLKFIANRDKVAVLVGSKLRAAGAEEAAVKFADALGGAVATMAAAKSFFPEENPHYIGTSWGEVSYPGVEKTMKEADAVIALAPVFNDYSTTGWTDIPDPKKLVLAEPRSVVVNGIRFPSVHLKDYLTRLAQKVSKKTGALDFFKSLNAGELKKAAPADPSAPLVNAEIARQVEALLTPNTTVIAETGDSWFNAQRMKLPNGARVEYEMQWGHIGWSVPAAFGYAVGAPERRNILMVGDGSFQLTAQEVAQMVRLKLPVIIFLINNYGYTIEVMIHDGPYNNIKNWDYAGLMEVFNGNGGYDSGAGKGLKAKTGGELAEAIKVALANTDGPTLIECFIGREDCTEELVKWGKRVAAANSRKPVNKLL
notes: made in house
Consider B2, for which, in data set [7], the Km is given as 0.35 µM.
